Like-named read-outs stand apart in the source and are kept apart here.
How the values were obtained:
[1] = test system: RNA Polymerase II Serine 5 phosphorylation in A549 cells overexpressing CDK7-mutant (C312S); assay: Imaging-based cellular RNA PolII Ser5 phosphorylation assay in A549 cells overexpressing CDK7-mutant (C312S); format: cell-based, human; conditions: RNA PolII Ser5 phosphorylation, averaged over all measurements; for IC50: Homo sapiens, A549, A549 cells overexpressing CDK7-mutant (C312S), read-out: CDK7_A549 mutant hCDK7(pIC50) (converted); for CDK7_A549 mutant hCDK7(pIC50): A549 cells overexpressing CDK7-mutant (C312S)
In short: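 Readout was automated imaging of anti-phospho-Ser5 Rpb1 CTD immunofluorescence, with IC50 fitted to % control versus concentration. Cells were A549 stably overexpressing non-covalently targetable CDK7 C312S alongside wild-type, exposed to compound 3 h at 37 °C. DMSO and 10 μM reference compound served as controls.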

[2] = molecular target: CDK7/cyclinH/MAT1 trimeric complex (Homo sapiens, UniProt P50613); assay: In vitro CDK7 assay, potency of irreversible covalent inhibitors (kinact/KI), coupled PK/LDH ADP readout at 340 nm
Chain of CDK7/cyclinH/MAT1 trimeric complex (P50613 whole entry): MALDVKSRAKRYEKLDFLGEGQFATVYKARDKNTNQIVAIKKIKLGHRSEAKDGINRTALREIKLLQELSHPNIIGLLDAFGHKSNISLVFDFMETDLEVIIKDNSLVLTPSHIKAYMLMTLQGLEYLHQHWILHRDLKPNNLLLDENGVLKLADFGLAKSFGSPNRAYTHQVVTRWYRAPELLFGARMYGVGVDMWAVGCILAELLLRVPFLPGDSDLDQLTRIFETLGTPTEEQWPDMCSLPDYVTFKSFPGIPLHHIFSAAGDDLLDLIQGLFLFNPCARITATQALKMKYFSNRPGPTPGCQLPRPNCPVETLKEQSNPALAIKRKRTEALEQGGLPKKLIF
Chain of CDK7/cyclinH/MAT1 trimeric complex (P51946 whole entry partner): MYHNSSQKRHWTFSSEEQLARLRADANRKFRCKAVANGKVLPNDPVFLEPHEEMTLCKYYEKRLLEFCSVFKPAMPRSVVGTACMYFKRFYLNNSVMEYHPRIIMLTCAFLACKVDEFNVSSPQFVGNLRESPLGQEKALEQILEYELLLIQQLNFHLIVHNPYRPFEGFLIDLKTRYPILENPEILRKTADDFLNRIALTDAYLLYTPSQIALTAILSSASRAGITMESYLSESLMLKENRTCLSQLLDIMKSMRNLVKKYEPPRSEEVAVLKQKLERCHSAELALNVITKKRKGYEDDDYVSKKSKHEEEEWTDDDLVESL
Chain of CDK7/cyclinH/MAT1 trimeric complex (P51948 whole entry partner): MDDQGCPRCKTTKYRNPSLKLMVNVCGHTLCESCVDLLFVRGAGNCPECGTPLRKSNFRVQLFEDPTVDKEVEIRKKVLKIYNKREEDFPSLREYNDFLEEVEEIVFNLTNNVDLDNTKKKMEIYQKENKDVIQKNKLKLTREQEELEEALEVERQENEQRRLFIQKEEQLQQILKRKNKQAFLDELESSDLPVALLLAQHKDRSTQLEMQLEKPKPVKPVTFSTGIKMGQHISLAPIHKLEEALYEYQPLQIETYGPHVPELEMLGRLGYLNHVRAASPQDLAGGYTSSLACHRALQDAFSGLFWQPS

[3] = test system: RNA Polymerase II Serine 5 phosphorylation (Rpb1 CTD, downstream substrate of CDK7) in A549 cells; assay: Imaging-based cellular RNA PolII Ser5 phosphorylation assay in A549 cells; format: cell-based, human; conditions: wild-type CDK7, RNA PolII Ser5 phosphorylation, averaged over all measurements; for IC50: Homo sapiens, A549, A549 cells, read-out: CDK7_A549 Wild-type CDK7 (pIC50) (converted); for CDK7_A549 Wild-type CDK7 (pIC50): A549 cells
In short: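 IC50 derived by fitting % control (DMSO high, 10 μM reference low) against concentration, with Hill slope. Readout: high-content imaging of phospho-Ser5 Rpb1 CTD antibody staining in fixed, permeabilized A549 cells exposed to compound 3 h after 20 h culture in 1% FBS DMEM.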

[4] = CDK7 (20 nM enz.) (KI, μM), 20 nM enzyme
[5] = read-out: CDK7 (20 nM enz.) (kinact, s^−1), 20 nM enzyme
[6] = read-out: CDK7 (20 nM enz.) (kinact/KI, M^−1*s^−1), 20 nM enzyme
[7] = read-out: CDK7 (20 nM enz.) (kobs/[I], M^−1*s^−1), 20 nM enzyme
[8] = CDK7 (KI(μM)), […], 1 mM ATP, room temperature, averaged values over all measurements
[9] = read-out: CDK7 (kinact, s^−1), kinact = maximal rate of inactivation, 1 mM ATP, room temperature, averaged values over all measurements
[10] = read-out: CDK7 (kinact/KI, M^−1*s^−1), potency of irreversible covalent inhibitors, 1 mM ATP, room temperature, averaged values over all measurements

| IC50 [1] [nM] | Ki [2, 4] [µM] | kinact [2, 5] [s⁻¹] | kinact/KI [2, 6] [M⁻¹ s⁻¹] | IC50 [3] [nM] | also measured | Structure (SMILES) |
| --- | --- | --- | --- | --- | --- | --- |
| > 3980 | 1.11 | 3.89e-05 | 34.9 | 955 | – | C=CC(=O)N1CC(N2CCC(c3cc4c(cn3)O[C@@H](C)c3c(N5CCOCC5)ccnc3N4)CC2)C1 (single isomer, unassigned) [Compound 261] |
| > 10000 | – | – | 3 | 3980 | – | C=CC(=O)N1CC(N2CC[C@H](c3cc4c(c(C)n3)O[C@H](C)c3c(N5CCOCC5)ccnc3N4)C2)C1 (single isomer, unassigned) [Compound 224] |
| 8710 | – | – | – | 67.6 | kinact/KI [2, 7]: 1160 M⁻¹ s⁻¹ | C=CC(=O)Nc1ccc(CCc2ccc3c(c2)Nc2nccc(N4CCOCC4)c2CO3)cn1 [Compound 65] |
| > 10000 | 0.0443 | 3.83e-05 | 865 | 83.2 | – | C=CC(=O)N1CC[C@@H](N2CC(c3cc(C)c4c(c3)Nc3nccc(N5CCOCC5)c3CO4)C2)[C@H](F)C1 (mixture of isomers) [Compound 207] |
| > 10000 | 0.48 | 4.87e-05 | 101 | 288 | – | C=CC(=O)N1CCC(N2CCC(c3ccc4c(c3)Nc3nccc(N5CCS(=O)(=NC)CC5)c3CO4)CC2)CC1 [Compound 95] |
| > 10000 | – | – | – | 1120 | Ki [2, 8]: 0.209 µM; kinact [2, 9]: 6.41e-05 s⁻¹; kinact/KI [2, 10]: 306 M⁻¹ s⁻¹ | C=CC(=O)N1CC(N2CCCC(c3ccc4c(c3)Nc3nccc(N5CCOCC5)c3CO4)C2)C1 (stereo not drawn) [Compound 40] |
| > 10000 | 0.226 | 3.13e-05 | 139 | 166 | – | CC#CC(=O)N1CC(c2nc(C)c(-c3cc4c(c(C)n3)OCc3c(N5CCOCC5)ccnc3N4)c(C)n2)C1 [Compound 278] |
| > 10000 | 0.0404 | 6.96e-05 | 1720 | 123 | – | C#CCCN(C)C/C=C/C(=O)N1CC(N2CCC(c3ccc4c(c3)Nc3nccc(N5CCOCC5)c3C(C)O4)CC2)C1 (racemic) [Compound 143] |
| – | 0.101 | – | – | – | CDK7_A549 mutant hCDK7(pIC50) [1]: <5; CDK7 (20 nM enz.) (kinact, s^−1) ([2]; 20 nM enzyme): 8.548e-05 s⁻¹; CDK7 (20 nM enz.) (kinact/KI, M^−1*s^−1) ([2]; 20 nM enzyme): 845.246 M⁻¹ s⁻¹; CDK7_A549 Wild-type CDK7 (pIC50) [3]: 7.15 | C=CC(=O)N1CC(N2CCC(c3cc4c(c(C)n3)OCc3c(N5CCOCC5)ccnc3N4)CC2)C1 [Compound 217] |
| 7240 | 0.0574 | 7.95e-05 | 1380 | 44.7 | – | C=CC(=O)N1CC(N2CC[C@H](c3cc(C)c4c(c3)Nc3nccc(C5CCOCC5)c3CO4)N(C)CC2)C1 (single isomer, unassigned) [Compound 257] |
| > 10000 | 0.0242 | 4.68e-05 | 1940 | ~67.6 | – | C=CC(=O)N1CC(N2CCC(c3ccc4c(c3)Nc3nccc(-c5cnn(C)c5)c3C(C)(C)O4)CC2)C1 [Compound 152] |
| ~8320 | 0.0688 | 5.48e-05 | 796 | 178 | – | C=CC(=O)N1CC(N2CC(c3cc4c(cn3)O[C@H](C)c3c(-c5cnn(C)c5)ccnc3N4)C2)C1 (single isomer, unassigned) [Compound 295] |
| > 10000 | – | – | – | 24 | kinact/KI [2, 7]: 2790 M⁻¹ s⁻¹ | COC(=O)/C=C/C(=O)N1CC[C@@H](N2CCC(c3cc4c(c(C)n3)OCc3c(-c5cnn(C)c5)ccnc3N4)CC2)C1 (single isomer, unassigned) [Compound 301] |
| 4170 | – | – | – | < 9.77 | kinact/KI [2, 7]: 1280 M⁻¹ s⁻¹ | CC#CC(=O)N1CCC(N2CCC(c3cc4c(c(C)n3)OCc3c(N5CCOCC5)ccnc3N4)CC2)CC1 [Compound 325] |
| > 10000 | 0.0763 | 5.75e-05 | 754 | 145 | – | C=CC(=O)N1CC[C@@H](N2CC(c3cc4c(c(C(F)(F)F)n3)OCc3c(-c5cnn(C)c5)ccnc3N4)C2)C1 (single isomer, unassigned) [Compound 495] |
| – | – | – | – | – | CDK7_A549 mutant hCDK7(pIC50) [1]: <5; kinact/KI [2, 7]: 1740 M⁻¹ s⁻¹; CDK7_A549 Wild-type CDK7 (pIC50) [3]: 7.42 | C=CC(=O)N1CC(N2CCC(c3cc(Cl)c4c(c3)Nc3nccc(N5CCOCC5)c3CO4)CC2)C1 [Compound 91] |
| > 10000 | 0.129 | 2.7e-05 | 209 | 316 | – | C=CC(=O)N1CC[C@H](N2CC(c3cc4c(c(C)n3)OCc3c(C5CCOCC5)ccnc3N4)C2)[C@@H](F)C1 (mixture of isomers) [Compound 242] |
| > 10000 | 0.146 | 4.74e-05 | 324 | 126 | – | C=CC(=O)N1CC[C@@H](N2CC(c3cc4c(c(C5CC5)n3)OCc3c(-c5cnn(C)c5)ccnc3N4)C2)C1 (single isomer, unassigned) [Compound 286] |
| > 10000 | – | – | – | 1620 | Ki [2, 8]: 0.325 µM; kinact [2, 9]: 4.98e-05 s⁻¹; kinact/KI [2, 10]: 153 M⁻¹ s⁻¹ | C=CC(=O)N1CC[C@H]2CN(c3ccc4c(c3)Nc3nccc(N5CCOCC5)c3CO4)CC[C@@H]21 (racemic) [Compound 48] |
| 3090 | 0.0543 | 5.99e-05 | 1100 | 47.9 | – | C=CC(=O)N1CCC(N2CC(c3cc4c(c(CCC)n3)OCc3c(N5CCOCC5)ccnc3N4)C2)CC1 [Compound 348] |
| > 10000 | – | – | – | ~178 | Ki [2, 8]: 0.132 µM; kinact [2, 9]: 0.000144 s⁻¹; kinact/KI [2, 10]: 1090 M⁻¹ s⁻¹ | CC#CC(=O)N1CC(N2CCC(c3ccc4c(c3)Nc3nccc(N5CCOCC5)c3CO4)CC2)C1 [Compound 50] |
| > 10000 | – | – | – | 77.6 | kinact/KI [2, 7]: 1040 M⁻¹ s⁻¹ | C=CC(=O)N1CC(N2CC[C@@H](c3ccc4c(c3)Nc3nccc(N5CCOCC5)c3CO4)C[C@@H]2C)C1 (single isomer, unassigned) [Compound 74] |
| > 10000 | – | – | 1.32 | 5620 | – | CC#CC(=O)N1CC(N2CC(c3cc(C#N)c4c(c3)Nc3nccc(C5CCOCC5)c3[C@H](C)O4)C2)C1 (single isomer, unassigned) [Compound 486] |
| > 10000 | 0.472 | 6.66e-05 | 141 | 550 | – | C=CC(=O)N1CC(N2CC[C@@H](c3ccc4c(c3)Nc3nccc(N5CCOCC5)c3CO4)[C@H](O)C2)C1 (racemic) [Compound 216] |
| 7240 | 0.0603 | 4.42e-05 | 734 | 72.4 | – | C=CC(=O)N1CCC(N2CC(c3cc(F)c4c(c3)Nc3nccc(N5CCOCC5)c3CO4)C2)CC1 [Compound 136] |
| > 10000 | 0.0239 | 3.55e-05 | 1490 | 107 | – | C=CC(=O)N1CC[C@@H](N2CC(c3cc(C)c4c(c3)Nc3nccc(N5CCOCC5)c3CO4)C2)[C@@H](F)C1 (mixture of isomers) [Compound 202] |
| > 10000 | 0.0914 | 5.02e-05 | 549 | 105 | – | CC#CC(=O)N1CC(N2CCC(c3cc4c(c(C5CC5)n3)OCc3c(C5CCOCC5)ccnc3N4)CC2)C1 [Compound 400] |
| > 10000 | 0.128 | 6.43e-05 | 502 | 977 | – | C=CC(=O)N1CC(N2CCC(c3ccc4c(c3)Nc3ncc(Cl)c(N5CCS(=O)(=O)CC5)c3CO4)CC2)C1 [Compound 60] |
